Source: patent US20240390521A1, “CHIMERIC MODIFIED ION CHANNELS AND USES THEREOF FOR TREATMENT OF TRIGEMINAL NERVE DISORDERS” (Kriya Therapeutics, Inc., priority 2023, published 2024)
Counter-ions that a name gives are not always drawn.

What was measured:
[1] = target: α7^L131G, Q139L, Y217F-GlyR LGIC (Homo sapiens, UniProt P36544, L131G/Q139L/Y217F); assay: Agonist potency at the modified chimeric LGIC; type: cell-based
rat IoN-CCI model = assay: Rat IoN-CCI model of trigeminal neuralgia, von Frey filament escape threshold (ET); type: in vivo
Method: Infraorbital nerve (IoN) chronic constriction injury (IoN-CCI) is an art-recognized animal model of trigeminal neuralgia (Vos et al. J Neurosci 14 (5 Pt 1): 2708-2723, 1994).
Mechanical allodynia was measured using a von Frey filament assay to define the escape threshold [ET]) in the rat IoN-CCI model. The total study duration was 6 months with two intermittent time points (2-and 4-months). Behavioral efficacy, as assessed by ET, and transgene expression in the trigeminal ganglion were evaluated.
Twelve groups of male and female adult rats were treated. AAV5-m-α7-GlyR LGIC vectors were injected percutaneously into the left trigeminal ganglion whereas the right untreated trigeminal ganglion served as control.
Naïve animals (no IoN-CCI, no AAV5-m-α7-GlyR LGIC or varenicline dosing) served as intact controls for behavioral and molecular analysis.
Varenicline tartrate was administered orally. A tartrate correction factor of 1.71 was applied in dose formulations.
Efficacy presented below is a combination of all 3 time points (2, 4, and 6 months) for each treatment group.

[2] = tested on: m-α7-GlyR LGICs expressed in mouse cortical neurons; assay: Evoked neuronal activity in mouse cortical neurons expressing m-α7-GlyR LGICs; type: cell-based; settings: data not shown
[3] = tested on: m-α7-GlyR ion channels in cultured hippocampal neurons; assay: Sustained varenicline exposure of cultured hippocampal neurons expressing m-α7-GlyR; type: cell-based; settings: varenicline 15 nM for 18 days; data not shown
[4] = Varenicline concentrations in blood, PFC and CSF after single oral administration; type: in vivo, rat; settings: male rats
[5] = 28-day study: varenicline PK in blood samples; type: in vivo, rat
Method: A 28-day biodistribution/toxicity study was conducted.

CNS function = settings: rat, in vivo
m-α7-GlyR LGIC = target: T1, m-α7-GlyR LGIC (Homo sapiens, UniProt P36544, L131G/Q139L/Y217F); assay: Constitutive activity of m-α7-GlyR LGIC without varenicline; type: in vivo, rodents; settings: absence of varenicline
T1 construct: expressed in transfected cells; host or cells: rodent neurons expressing the transgene (mouse cortical neurons, cultured hippocampal neurons; rat trigeminal ganglion after AAV5 injection)

## C[N+](C)(C)CCO [choline]
[1]
  EC50: > 50 µM

## c1cnc2cc3c(cc2n1)[C@@H]1CNC[C@H]3C1 [varenicline, 6,10-Methano-6H-pyrazino[2,3-h][3]benzazepine, 7,8,9,10-tetrahydro-5,8,14-triazatetracyclo[10.3.1.02,11.04,9]hexadeca-2,4,6,8,10-pentaene tartrate salt]
Rat IoN-CCI model; Group 6 varenicline alone, Group 7 AAV5-m-α7-GlyR LGIC (6×10^8 vg) alone, tartrate salt
  improvement of pain sensitivity, single agent alone: neither varenicline alone nor AAV5-m-α7-GlyR LGIC alone (Groups 6 and 7, respectively) demonstrated improved pain sensitivity
Rat IoN-CCI model; all animals receiving treatment
  varenicline levels at the time of sample collection: within predictable levels
[2]
  effect of activation by varenicline on evoked neuronal activity: reversible inhibition of evoked neuronal activity
[3]
  tachyphylaxis or down regulation of expressed m-α7-GlyR LGICs: did not result in tachyphylaxis or down regulation
[4]
  time of peak varenicline concentration in CSF: 60 min
  time of peak varenicline concentration in PFC: 90 min
  time of peak varenicline concentration in blood: 60 min
[5]; 6 hours post-dose vs 2 hours, 1 mg/kg p.o.
  decrease of varenicline level: approximately 50%
[5]; rat, blood, po, 2 hours post-dose, 1 mg/kg p.o., average across groups
  concentration at 2 h: ~480 nM
[5]; rat, blood, po, 24 hours post final dose, 1 mg/kg p.o. daily, average
  concentration at 24 h: 4.4 nM
[5]; rat, in vivo
  sex differences in plasma varenicline levels: no sex differences in plasma varenicline levels
CNS function
  treatment related changes in the neurological assessments: no AAV5-m-α7-GlyR LGIC, varenicline or AAV5-m-α7-GlyR LGIC+varenicline related changes in the neurological assessments

B1: m-α7-GlyR LGIC: human chimeric ion channel: modified nicotinic α7 receptor binding domain and glycine channel ion pore domain; SEQ ID NO: 1 (protein)
chain: MRCSPGGVWLALAASLLHVSLQGEFQRKLYKELVKNYNPLERPVANDSQPLTVYFSLSLLQIMDVDEKNQVLTTNIWLQMSWTDHYLQWNVSEYPGVKTVRFPDGQIWKPDILLYNSADERFDATFHTNVGVNSSGHCLYLPPGIFKSSCYIDVRWFPFDVQHCKLKFGSWSYGGWSLDLQMQEADISGYIPNGEWDLVGIPGKRSERFYECCKEPFPDVTFTVTMRRRMGYYLIQMYIPSLLIVILSWISFWINMDAAPARVGLGITTVLTMTTQSSGSRASLPKVSYVKAIDIWMAVCLLFVFSALLEYAAVNFVSRQHKELLRFRRKRRHHKEDEAGEGRFNFSAYGMGPACLQAKDGISVKGANNSNTTNPPPAPSKSPEEMRKLFIQRAKKIDKISRIGFPMAFLIFNMFYWIIYKIVRREDVHNQ
m-α7-GlyR LGIC
  constitutive activity: no constitutive activity
